Experimental data taken from patent US20050101593A1, “Phosphoric acid salt of an integrin receptor antagonist” (priority 2000, published 2005).
Structures can show the parent of a compound that is named as a salt.

Experiments:
[1] = solubility in water and buffered solutions; type: physicochemical; conditions: water and buffered solutions between pH 2 and 8
[2] = chemical stability to heat and light; type: physicochemical; conditions: compared with the amorphous parent zwitterionic compound of formula (IV)
Text: (§1) The enhanced stability and non-hygroscopic nature of the crystalline salt constitute advantageous properties in the preparation of solid pharmaceutical dosage forms containing the pharmacologically active ingredient.

hygroscopicity = type: physicochemical; conditions: compared with the amorphous zwitterion of formula (IV)
Text: as §1

melting point	solubility [1]	hygroscopicity (hygroscopicity)	SMILES	chemical stability to heat and light [2]
127 °C	–	–	COc1ncc(C(CC(=O)O)CC(=O)CCCCc2ccc3c(n2)NCCCC3)cn1.O=P(O)(O)O (single isomer, unassigned) [1-17a, 3(S or R)-(2-Methoxy-pyrimidin-5-yl)-5-oxo-9-(6,7,8,9-tetrahydro-5H-pyrido[2,3-b]azepin-2-yl)-nonanoic Acid Phosphoric Acid Salt]	–
–	> 12 mg/mL	significantly less hygroscopic	COc1ncc(C(CC(=O)O)CC(=O)CCCCc2ccc3c(n2)NCCCC3)cn1 (stereo not shown) [salt of formula I, phosphoric acid salt of 3-(2-methoxy-pyrimidin-5-yl)-5-oxo-9-(6,7,8,9-tetrahydro-5H-pyrido[2,3-b]azepin-2-yl)-nonanoic acid]	greater chemical stability to heat and light
